In US20100297688A1, “METHOD FOR DIAGNOSING OR PREDICTING SHORT STATURE IN HUMANS” (priority 2009, published 2010):
No end group written: not given here.

What was measured:
[1] = adult dogs, after treatment with GH for 3 months, histomorphometry; cited from earlier work
GH secretion = assay: GHRH test (GH stimulation test) in children with short stature; assay type: in vivo, human; conditions: GHRH 1 μg/kg IV at 0 min; GH peaks induced consistently in the first 30 min
Method: Patients. A GHRH test was conducted after overnight fasting, modified with samples that were obtained at 3, 5, and 10 minutes in addition to routine protocol collection of samples at 30 minutes, 60 minutes, 90 minutes and 120 minutes following GHRH injection (GHRH1-29: GEREF, SERONO, Italy; 1 μg/kg IV at 0 min). A total of 19 children (8.6±3.2, range from 2.5 yrs to 14 yrs, 5 girls) who suffered SS (short stature) (Ht−2.5±0.6 SDS) were administered GHRH 1 μg/kg IV at 0 min and blood samples were obtained at 0, 3, 5, 10, 30, 60, 90 and 120 min. GH was determined in all samples.
Blood sample processing. GH and IGF-1 were analyzed at Esoterix (Texas, U.S.). IGF1 was measured by radioimmunoassay after acid-ethanol extraction and with IGF2 blocking. A 100 uL of sample was initially used for the procedure. Growth hormone was tested by ICMA, requires min amount of 0.2 ml of serum, preparation include 1 mL serum, separate within one hour that was shipped frozen in plastic vial (http://www.esoterix.com/prodserv/test_menu!)
AUC measurements for GH were calculated according trapezoid rule (Tai MM 1994 A mathematical model for the determination of total area under glucose tolerance and other metabolic curves. Diabetes Care 17:p 152-4).

| Substance | increase in cortical bone mass [1] | time of GH peak after GHRH (GH secretion) |
| --- | --- | --- |
| Growth hormone [GH] | 2% |  |
| Growth hormone releasing hormone (YADAIFTNSYRKVLGQLSARKLLQDIMSR; ends and bridges not checked; UniProt P01286 32-60, looked up, fragment) [GHRH, GHRH1-29: GEREF, SERONO, Italy; stimulator of GH secretion] |  | ≤ 30 min |
